Results taken from PubChem BioAssay AID248 (DTP/NCI, 2004).
Inconclusive results and toxic doses are left out. Cut-off read from the data, not from the text of the source: active = T/C of 150% or more; inactive = T/C below 125%.

Tested on: L1210 leukemia ip in BDF1 mice, survival T/C
Assay: NCI In Vivo Anticancer Drug Screen. Data for tumor model L1210 Leukemia (intraperitoneal) in B6D2F1 (BDF1) mice
Conditions: endpoint: mean survival time, higher = longer survival
How it was run: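 Tumor was transplanted into mice, which were then dosed with test compound or vehicle alone. Survival was recorded for each group, and the treated figure was expressed relative to the control figure.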

[1] = dose: 100.0 mg/kg/injection, schedule: Q01DX001 (ip), vehicle: saline
[2] = dose: 200.0 mg/kg/injection, schedule: Q01DX001 (ip), vehicle: saline
[3] = dose: 400.0 mg/kg/injection, schedule: Q01DX001 (ip), vehicle: saline
[4] = dose: 100.0 mg/kg/injection, schedule: Q01DX001 (ip), vehicle: carboxymethylcellulose (CMC)
[5] = dose: 200.0 mg/kg/injection, schedule: Q01DX001 (ip), vehicle: carboxymethylcellulose (CMC)
[6] = dose: 100.0 mg/kg/injection, schedule: Q01DX001 (ip), vehicle: Klucel (hydroxypropylcellulose) (HPC)
[7] = dose: 100.0 mg/kg/injection, schedule: Q04DX003 (ip), vehicle: Klucel (hydroxypropylcellulose) (HPC)
[8] = dose: 200.0 mg/kg/injection, schedule: Q01DX001 (ip), vehicle: Klucel (hydroxypropylcellulose) (HPC)
[9] = dose: 200.0 mg/kg/injection, schedule: Q04DX003 (ip), vehicle: Klucel (hydroxypropylcellulose) (HPC)
[10] = dose: 400.0 mg/kg/injection, schedule: Q01DX001 (ip), vehicle: Klucel (hydroxypropylcellulose) (HPC)
[11] = dose: 400.0 mg/kg/injection, schedule: Q04DX003 (ip), vehicle: Klucel (hydroxypropylcellulose) (HPC)
[12] = dose: 100.0 mg/kg/injection, schedule: Q01DX009 (ip), vehicle: Klucel (hydroxypropylcellulose) (HPC)
[13] = dose: 100.0 mg/kg/injection, schedule: Q04DX003 (ip), vehicle: saline
[14] = dose: 200.0 mg/kg/injection, schedule: Q01DX009 (ip), vehicle: Klucel (hydroxypropylcellulose) (HPC)
[15] = dose: 200.0 mg/kg/injection, schedule: Q04DX003 (ip), vehicle: saline
[16] = dose: 400.0 mg/kg/injection, schedule: Q01DX009 (ip), vehicle: Klucel (hydroxypropylcellulose) (HPC)
[17] = dose: 100.0 mg/kg/injection, schedule: Q04DX003 (ip), vehicle: saline with Tween-80
[18] = dose: 200.0 mg/kg/injection, schedule: Q04DX003 (ip), vehicle: saline with Tween-80
[19] = dose: 400.0 mg/kg/injection, schedule: Q04DX003 (ip), vehicle: saline with Tween-80

Measured: T/C

NNC(=O)c1cc(N)nc(Cl)c1
inactive: [1] 96 % of control | [2] 96 % of control | [3] 98 % of control

NC(CCl)=NCCC1=NCCN1
inactive: dose: 100.0 mg/kg/injection, schedule: Q04DX002 (ip), vehicle: saline 100 % of control | dose: 200.0 mg/kg/injection, schedule: Q04DX002 (ip), vehicle: saline 106 % of control

Cc1coc(NS(=O)(=O)c2ccc(N=Nc3cc(N=Nc4ccccc4)c(N)nc3N)cc2)c1C
inactive: [4] 94 % of control | [5] 105 % of control

Cc1c(N)c(C)c(-c2c(O)c(Br)c(C)c(O)c2Br)c(C)c1Br
inactive: [6] 93 % of control | [7] 102 % of control | [8] 98 % of control | [9] 96 % of control | [10] 87 % of control | [11] 94 % of control

CC(C)C[CH2][Pb]([Cl])([CH2]CC(C)C)[CH2]CC(C)C
inactive: dose: 0.03 mg/kg/injection, schedule: Q04DX002 (ip), vehicle: saline 96 % of control | dose: 0.05 mg/kg/injection, schedule: Q04DX002 (ip), vehicle: saline 102 % of control | dose: 0.1 mg/kg/injection, schedule: Q04DX002 (ip), vehicle: saline 96 % of control | dose: 0.2 mg/kg/injection, schedule: Q04DX002 (ip), vehicle: other 111 % of control | dose: 0.2 mg/kg/injection, schedule: Q04DX003 (ip), vehicle: other 101 % of control | dose: 0.78 mg/kg/injection, schedule: Q04DX003 (ip), vehicle: other 95 % of control

Cn1nc(N)c2ncc(-c3ccccc3)nc21
inactive: [12] 92 % of control | [13] 103 % of control | [14] 95 % of control | [15] 107 % of control | [16] 98 % of control | dose: 400.0 mg/kg/injection, schedule: Q04DX003 (ip), vehicle: saline 98 % of control

CCCCCCCCCC(=O)N1C(C)CCC1C (stereo not given)
inactive: dose: 100.0 mg/kg/injection, schedule: Q04DX002 (ip), vehicle: other 103 % of control | dose: 200.0 mg/kg/injection, schedule: Q04DX002 (ip), vehicle: other 107 % of control

CC1CC(NC(=S)NC(=O)c2ccccc2Cl)CC(C)(C)C1 (stereo not given)
inactive: dose: 100.0 mg/kg/injection, schedule: Q04DX002 (ip), vehicle: saline with Tween-80 98 % of control | dose: 200.0 mg/kg/injection, schedule: Q04DX002 (ip), vehicle: saline with Tween-80 113 % of control | dose: 400.0 mg/kg/injection, schedule: Q04DX002 (ip), vehicle: saline with Tween-80 102 % of control

CC[P+](CCCCCCCCC[P+](CC)(Cc1ccccc1)c1ccccc1)(Cc1ccccc1)c1ccccc1 (stereo not given)
inactive: dose: 5.0 mg/kg/injection, schedule: Q01DX001 (ip), vehicle: saline 105 % of control

O=C(NC1C=CCCC1)NC1C=CCCC1 (stereo not given)
inactive: dose: 50.0 mg/kg/injection, schedule: Q01DX001 (ip), vehicle: other 88 % of control | dose: 100.0 mg/kg/injection, schedule: Q01DX001 (ip), vehicle: other 94 % of control | dose: 200.0 mg/kg/injection, schedule: Q01DX001 (ip), vehicle: other 97 % of control | dose: 400.0 mg/kg/injection, schedule: Q01DX001 (ip), vehicle: other 94 % of control

O=S(Cc1ccccc1)Cc1ccccc1
inactive: dose: 50.0 mg/kg/injection, schedule: Q01DX001 (ip), vehicle: saline 110 % of control | [1] 110 % of control | [12] 103 % of control | [7] 90 % of control | [2] 103 % of control | [14] 100 % of control | [9] 97 % of control | [3] 100 % of control | [16] 102 % of control | [11] 100 % of control

CCCCCCCC(=O)c1ccc(O)cc1
inactive: [17] 109 % of control | [18] 100 % of control | [19] 103 % of control

CCC(=O)c1ccc(-c2ccccc2)cc1
inactive: dose: 175.0 mg/kg/injection, schedule: Q04DX002 (ip), vehicle: Klucel (hydroxypropylcellulose) (HPC) 102 % of control | dose: 350.0 mg/kg/injection, schedule: Q04DX002 (ip), vehicle: Klucel (hydroxypropylcellulose) (HPC) 98 % of control

CC(=O)OI(OC(C)=O)c1cccc(C)c1
inactive: [12] 96 % of control | [14] 96 % of control

O=c1[nH]c2cc(Cl)c(Cl)cc2o1
inactive: dose: 19.0 mg/kg/injection, schedule: Q01DX Z (ip), vehicle: carboxymethylcellulose (CMC) 95 % of control | dose: 37.5 mg/kg/injection, schedule: Q01DX Z (ip), vehicle: carboxymethylcellulose (CMC) 95 % of control | dose: 75.0 mg/kg/injection, schedule: Q01DX Z (ip), vehicle: carboxymethylcellulose (CMC) 96 % of control | [12] 93 % of control | dose: 100.0 mg/kg/injection, schedule: Q04DX003 (ip), vehicle: other 102 % of control | [14] 93 % of control | dose: 200.0 mg/kg/injection, schedule: Q04DX003 (ip), vehicle: other 95 % of control | dose: 400.0 mg/kg/injection, schedule: Q04DX003 (ip), vehicle: other 97 % of control

CCOC(=O)C[P+](c1ccc(OC)cc1)(c1ccc(OC)cc1)c1ccc(OC)cc1
inactive: dose: 30.0 mg/kg/injection, schedule: Q01DX001 (ip), vehicle: carboxymethylcellulose (CMC) 90 % of control

CN(C)C(=S)Oc1ccc(C(=O)O)cc1
inactive: [6] 86 % of control | [8] 90 % of control | [10] 88 % of control

Brc1cnc(OCc2ccccc2)nc1OCc1ccccc1
inactive: [12] 91 % of control | dose: 100.0 mg/kg/injection, schedule: Q01DX009 (ip), vehicle: saline with Tween-80 103 % of control | [7] 96 % of control | [17] 103 % of control | [14] 102 % of control | dose: 200.0 mg/kg/injection, schedule: Q01DX009 (ip), vehicle: saline with Tween-80 102 % of control | [9] 100 % of control | [18] 97 % of control | [16] 104 % of control | dose: 400.0 mg/kg/injection, schedule: Q01DX009 (ip), vehicle: saline with Tween-80 101 % of control | [11] 93 % of control | [19] 92 % of control

COC(=O)CCC(C)C1CCC2C3CCC4CC(OC(C)=O)CCC4(C)C3CCC12C (stereo not given)
inactive: dose: 100.0 mg/kg/injection, schedule: Q01DX001 (ip), vehicle: saline with Tween-80 95 % of control | dose: 200.0 mg/kg/injection, schedule: Q01DX001 (ip), vehicle: saline with Tween-80 95 % of control | dose: 400.0 mg/kg/injection, schedule: Q01DX001 (ip), vehicle: saline with Tween-80 89 % of control

CCn1c(C)nc2cc(Cl)c(Br)cc21
inactive: [13] 107 % of control | [15] 110 % of control

Nc1nc(-c2ccccc2)c(CCCOc2ccc(NC(=O)CBr)cc2)c(=O)[nH]1
inactive: dose: 50.0 mg/kg/injection, schedule: Q01DX001 (ip), vehicle: carboxymethylcellulose (CMC) 91 % of control | [4] 96 % of control | [5] 86 % of control | dose: 400.0 mg/kg/injection, schedule: Q01DX001 (ip), vehicle: carboxymethylcellulose (CMC) 86 % of control

CC(C)OB(OC(C)C)OC(C)C
inactive: [12] 103 % of control | [7] 104 % of control | [14] 103 % of control | [9] 95 % of control | [16] 102 % of control | [11] 100 % of control

COc1ccc(Cl)cc1NC(=O)OCCCc1ccccc1
inactive: dose: 100.0 mg/kg/injection, schedule: Q01DX009 (ip), vehicle: gum acacia 108 % of control | dose: 200.0 mg/kg/injection, schedule: Q01DX009 (ip), vehicle: gum acacia 98 % of control | dose: 400.0 mg/kg/injection, schedule: Q01DX009 (ip), vehicle: gum acacia 109 % of control

Cc1cccc(C)c1NC(=O)/C=C\C(=O)O
inactive: [7] 98 % of control | [9] 91 % of control | [11] 94 % of control

NC(=O)c1ccc[n+](CC(=O)Nc2ccc(Cl)cc2)c1
inactive: [17] 101 % of control | [18] 101 % of control | [19] 95 % of control

CC(=O)OC1CCC(OC(C)=O)C(C#N)(C#N)C1(C#N)C#N (stereo not given)
inactive: [17] 104 % of control | [18] 93 % of control

NNc1ccnc2c1cnn2C1OC(CO)C(O)C1O (stereo not given)
inactive: dose: 50.0 mg/kg/injection, schedule: Q01DX005 (ip), vehicle: other 105 % of control

CCOC(=O)C(OC(=O)c1ccccc1)(OC(=O)c1ccccc1)C(=O)OCC
inactive: [1] 101 % of control | [2] 93 % of control
